How the values were obtained:
Assay type in all cases: biochemical
[1] = biological target: T1, Calpain I (Homo sapiens, UniProt P07384); assay: Rate of inactivation of calpain I (second order rate constant); conditions: pH 7.5, pseudo-first order conditions, read-out: Calpain Inactivation Rates
T1 construct: made in house
T1 sequence (P07384 1-714): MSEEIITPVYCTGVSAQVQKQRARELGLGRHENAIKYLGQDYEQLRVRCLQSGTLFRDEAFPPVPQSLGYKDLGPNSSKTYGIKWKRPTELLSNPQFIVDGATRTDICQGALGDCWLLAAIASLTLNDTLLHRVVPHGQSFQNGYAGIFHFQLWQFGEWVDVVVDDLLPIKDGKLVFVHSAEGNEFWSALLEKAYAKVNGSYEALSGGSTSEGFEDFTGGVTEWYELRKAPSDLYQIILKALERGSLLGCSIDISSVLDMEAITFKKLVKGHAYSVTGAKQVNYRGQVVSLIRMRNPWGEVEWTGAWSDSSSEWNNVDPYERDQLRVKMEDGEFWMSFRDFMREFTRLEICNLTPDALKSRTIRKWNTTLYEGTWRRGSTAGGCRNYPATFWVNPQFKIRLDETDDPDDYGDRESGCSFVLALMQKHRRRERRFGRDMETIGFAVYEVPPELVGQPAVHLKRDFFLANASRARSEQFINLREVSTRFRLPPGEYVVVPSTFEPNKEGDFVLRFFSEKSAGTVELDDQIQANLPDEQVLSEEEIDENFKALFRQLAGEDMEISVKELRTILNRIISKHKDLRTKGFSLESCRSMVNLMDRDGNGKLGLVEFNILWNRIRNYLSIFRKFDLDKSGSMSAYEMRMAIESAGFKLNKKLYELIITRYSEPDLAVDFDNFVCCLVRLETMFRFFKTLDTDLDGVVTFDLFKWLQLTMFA
T1 sequence (P04632 1-268 partner): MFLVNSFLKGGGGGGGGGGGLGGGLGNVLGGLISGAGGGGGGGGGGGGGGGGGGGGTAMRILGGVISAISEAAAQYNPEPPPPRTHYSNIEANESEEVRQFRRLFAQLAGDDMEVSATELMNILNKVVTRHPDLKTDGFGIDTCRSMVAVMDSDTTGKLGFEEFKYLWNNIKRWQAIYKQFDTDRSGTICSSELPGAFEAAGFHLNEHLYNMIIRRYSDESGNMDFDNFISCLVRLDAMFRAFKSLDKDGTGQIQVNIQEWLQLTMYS
Procedure: (§1) To evaluate inhibitory activity, stock solutions (40 times concentrated) of each compound to be tested were prepared in 100% anhydrous DMSO and 5 μL of each inhibitor preparation were aliquoted into each of three wells of a 96-well plate. Calpain I, prepared by a modification of the method of W. J. Lee et al. (Biochem. Internatl. 22: 163-171 (1990)), was diluted into assay buffer (i.e., 50 mM Tris, 50 mM NaCl, 1 mM EDTA, 1 mM EGTA, and 5 mM-mercaptoethanol, pH 7.5 including 0.2 mM Succ-Leu-Tyr-MNA) and 175 μL aliquoted into the same wells containing the independent inhibitor stocks as well as to positive control wells containing 5 μL DMSO, but no compound. To start the reaction, 20 μL of 50 mM CaCl2 in assay buffer was added to all wells of the plate, excepting three, which were used as background signal baseline controls. Substrate hydrolysis was monitored every 5 minutes for a total of 30 minutes using a Fluoroskan II fluorescence plate reader. Substrate hydrolysis in the absence of inhibitor was linear for up to 15 minutes.
Inhibition of calpain I activity was calculated as the percent decrease in the rate of substrate (S) hydrolysis in the presence of inhibitor (I) relative to the rate in its absence (o). Comparison between the inhibited and control rates was made within the linear range for substrate hydrolysis. For screening, compounds were tested at 10 μM. Compounds having 50% inhibition at 10 μM were considered active. […] The results were plotted as % inhibition versus log inhibitor concentration and the IC50 was calculated from linear regression of the data. Apparent second order rate constants were determined from analysis of reaction progress curves under pseudo-first order conditions. Each determination represents the means of three or more independent single cuvette analyses continually monitored via a Perkin-Elmer LS50B spectrofluorimeter. […]
where y is the product formed at time t. […] The apparent second order rate constant kapp was determined as Kobs /[I]. […]

[2] = biological target: T2, α-chymotrypsin (Bos taurus, UniProt P00766); assay: Inhibition of α-chymotrypsin; conditions: pH 7.5, 10 μM, 0.03 mM Succ-Ala-Ala-Pro-Phe-AMC, read-out: Chymotrypsin % I @
T2 construct: purchased Sigma Chem. Co. C-3142
Procedure: as §1
(§2) Inhibition of calpain I activity was calculated as the percent decrease in the rate of substrate (S) hydrolysis in the presence of inhibitor (I) relative to the rate in its absence (o). Comparison between the inhibited and control rates was made within the linear range for substrate hydrolysis. For screening, compounds were tested at 10 μM. Compounds having 50% inhibition at 10 μM were considered active. The IC50s of inhibitors (concentration yielding 50% inhibition) were determined from the percent decrease in the rates of substrate hydrolysis in the presence of five to seven different concentrations of the test compound. The results were plotted as % inhibition versus log inhibitor concentration and the IC50 was calculated from linear regression of the data. Apparent second order rate constants were determined from analysis of reaction progress curves under pseudo-first order conditions. Each determination represents the means of three or more independent single cuvette analyses continually monitored via a Perkin-Elmer LS50B spectrofluorimeter. The rate of inhibition of hydrolysis was obtained by fitting the curve to the exponential equation (1):
(§3) Additionally, because α-chymotrypsin is not a calcium sensitive enzyme and is constitutively active, following addition of inhibitor stocks to the 96 well plates, 100 μl of a 2-fold concentrated stock of enzyme in dilution buffer was first added and the reaction started by addition of 100 μl of a 2-fold concentrated stock of substrate in assay buffer. Substrate hydrolysis was monitored every 5 minutes up to 30 minutes using a Fluoroskan II ([…]).

[3] = biological target: T3, thrombin (Homo sapiens, UniProt P00734); assay: Inhibition of thrombin; conditions: 25 μM Bz-Phe-Val-Arg-AMC, pH 7.5, read-out: Thrombin % I @ 10 uM
T3 construct: purchased Sigma Chem. Co. T-7009
Procedure: as §1, §2, §3
Inhibition of thrombin (Sigma Chem. Co. Cat. #T-7009) was evaluated as described for chymotrypsin except that the assay was performed in 50 mM Tris, 10 mM CaCl2, pH 7.5 and the substrate was 25 μM Bz-Phe-Val-Arg-AMC (Bachem cat#I-1080).

CC(C)CC(CC(=O)C1c2ccccc2Oc2ccccc21)C(=O)NC(Cc1ccccc1)C(=O)CF (racemic) [Compound 14b, Xanthene-COCH2 CH(iBu)CO-Phe-CH2 F]
kinact/KI [1]: 75600 M⁻¹ s⁻¹
inhibition at 10 µM [2]: 98%
inhibition at 10 µM [3]: 9%

CCC(C(=O)CC(CC(C)C)C(=O)NC(Cc1ccccc1)C(=O)CF)c1ccccc1 (stereo not drawn) [Compound 14a, CH3 CH2 CH(Ph)COCH2 CH(iBu)CO-Phe-CH2 F]
kinact/KI [1]: 5800 M⁻¹ s⁻¹
inhibition at 10 µM [2]: 33%
inhibition at 10 µM [3]: 0%

CC(C)CC(CC(=O)[C@H](CC(C)C)NC(=O)OCc1ccccc1)C(=O)NC(Cc1ccccc1)C(=O)CF (stereo partly drawn) [Compound 14c, Z-Leu-CH2 CH(iBu)CO-Phe-CH2 F]
kinact/KI [1]: 16800 M⁻¹ s⁻¹
inhibition at 10 µM [2]: 82%
inhibition at 10 µM [3]: 0%

— patent publication US6329377A, “Ketomethylene group-containing cysteine and serine protease inhibitors” (Cephalon, Inc., priority 2000, dated 2001)
